Results from ChEMBL document CHEMBL3784981, “Anti-inflammatory, analgesic and antioxidant activities of novel kyotorphin-nitroxide hybrid molecules” (Bioorg Med Chem Lett, 2016).
pEC50: −log10 of the molar value. Calls of active or inactive are those of the source.

Columns and labels:
Mus musculus [1] = experiment: Analgesic activity in ICR mouse assessed as pain threshold at 0.1 umol/kg administered through oral gavage after 30 mins by tail flick method; format: functional
Mus musculus [2] = experiment: Analgesic activity in ICR mouse assessed as pain threshold at 0.1 umol/kg administered through oral gavage after 60 mins by tail flick method; format: functional
Mus musculus [3] = experiment: Analgesic activity in ICR mouse assessed as pain threshold at 0.1 umol/kg administered through oral gavage after 90 mins by tail flick method; format: functional
Mus musculus [4] = experiment: Analgesic activity in ICR mouse assessed as pain threshold at 0.1 umol/kg administered through oral gavage after 120 mins by tail flick method; format: functional
Mus musculus [5] = experiment: Analgesic activity in ICR mouse assessed as pain threshold at 0.1 umol/kg administered through oral gavage after 150 mins by tail flick method; format: functional
Mus musculus [6] = experiment: Analgesic activity in ICR mouse assessed as pain threshold at 0.1 umol/kg administered through oral gavage after 180 mins by tail flick method; format: functional
Mus musculus [7] = experiment: Antiinflammatory activity in ICR mouse assessed as inhibition of xylene-induced ear edema at 0.1 umol/kg, po administered 30 mins prior to xylene challenge measured after 2hrs; format: functional
[8] = Antioxidant activity in sodium nitroprusside-stimulated rat PC12 cells assessed as NO radical scavenging activity measured as cell survival preincubated with compound for 1 hr followed by addition of sodium nitroprusside for 2 measured after 14 hrs by MTT assay; format: functional, cell-based; settings: pc-12
[9] = Antioxidant activity in rat PC12 cells assessed as H2O2 radical scavenging activity measured as cell survival preincubated with compound for 1 hr measured after 14 hrs by MTT assay; format: functional, cell-based; settings: pc-12
[10] = Antioxidant activity in H2O2/Fe(II)-stimulated rat PC12 cells assessed as OH radical scavenging activity measured by cell survival preincubated with compound for 1 hr measured after 14 hrs by MTT assay; format: functional, cell-based; settings: pc-12
Mus musculus [11] = experiment: Analgesic activity in ICR mouse assessed as pain threshold at 1 umol/kg administered through oral gavage after 30 mins by tail flick method; format: functional
Mus musculus [12] = experiment: Analgesic activity in ICR mouse assessed as pain threshold at 1 umol/kg administered through oral gavage after 60 mins by tail flick method; format: functional
Mus musculus [13] = experiment: Analgesic activity in ICR mouse assessed as pain threshold at 1 umol/kg administered through oral gavage after 90 mins by tail flick method; format: functional
Mus musculus [14] = experiment: Analgesic activity in ICR mouse assessed as pain threshold at 1 umol/kg administered through oral gavage after 120 mins by tail flick method; format: functional
Mus musculus [15] = experiment: Analgesic activity in ICR mouse assessed as pain threshold at 1 umol/kg administered through oral gavage after 150 mins by tail flick method; format: functional
Mus musculus [16] = experiment: Analgesic activity in ICR mouse assessed as pain threshold at 1 umol/kg administered through oral gavage after 180 mins by tail flick method; format: functional
HUVEC [17] = experiment: Inhibition of simulated ischemia/reperfusion-induced human HUVEC cells death assessed as increase in tubular mitochondria levels at 30 ug/ml after 2 hrs by Hoechst 33342 dye based fluorescence assay (reference value: 11.3 +/- 2.1 %); format: functional; set-up: scale not given: the % may be the effect or the level left
Mus musculus [18] = experiment: Analgesic activity in ICR mouse assessed as pain threshold at 0.15 umol/kg administered through oral gavage after 30 mins by tail flick method; format: functional
Mus musculus [19] = experiment: Analgesic activity in ICR mouse assessed as pain threshold at 0.15 umol/kg administered through oral gavage after 60 mins by tail flick method; format: functional
Mus musculus [20] = experiment: Analgesic activity in ICR mouse assessed as pain threshold at 0.15 umol/kg administered through oral gavage after 90 mins by tail flick method; format: functional
Mus musculus [21] = experiment: Analgesic activity in ICR mouse assessed as pain threshold at 0.15 umol/kg administered through oral gavage after 120 mins by tail flick method; format: functional
Mus musculus [22] = experiment: Analgesic activity in ICR mouse assessed as pain threshold at 0.15 umol/kg administered through oral gavage after 150 mins by tail flick method; format: functional
Mus musculus [23] = experiment: Analgesic activity in ICR mouse assessed as pain threshold at 0.15 umol/kg administered through oral gavage after 180 mins by tail flick method; format: functional
Mus musculus [24] = experiment: Analgesic activity in ICR mouse assessed as pain threshold at 0.05 umol/kg administered through oral gavage after 30 mins by tail flick method; format: functional
Mus musculus [25] = experiment: Analgesic activity in ICR mouse assessed as pain threshold at 0.05 umol/kg administered through oral gavage after 60 mins by tail flick method; format: functional
Mus musculus [26] = experiment: Analgesic activity in ICR mouse assessed as pain threshold at 0.05 umol/kg administered through oral gavage after 90 mins by tail flick method; format: functional
Mus musculus [27] = experiment: Analgesic activity in ICR mouse assessed as pain threshold at 0.05 umol/kg administered through oral gavage after 120 mins by tail flick method; format: functional
Mus musculus [28] = experiment: Analgesic activity in ICR mouse assessed as pain threshold at 0.055 umol/kg administered through oral gavage after 150 mins by tail flick method; format: functional
Mus musculus [29] = experiment: Analgesic activity in ICR mouse assessed as pain threshold at 0.055 umol/kg administered through oral gavage after 180 mins by tail flick method; format: functional
Mus musculus [30] = experiment: Antiinflammatory activity in ICR mouse assessed as inhibition of xylene-induced ear edema at 0.15 umol/kg, po administered 30 mins prior to xylene challenge measured after 2hrs; format: functional
Mus musculus [31] = experiment: Antiinflammatory activity in ICR mouse assessed as inhibition of xylene-induced ear edema at 0.05 umol/kg, po administered 30 mins prior to xylene challenge measured after 2hrs; format: functional
HUVEC [32] = experiment: Inhibition of simulated ischemia/reperfusion-induced ROS production in human HUVEC cells at 30 ug/ml after 2 hrs by Hoechst 33342 dye based fluorescence assay; format: functional, cell-based
HUVEC [33] = experiment: Inhibition of simulated ischemia/reperfusion-induced cytochrome C release in human HUVEC cells at 30 ug/ml after 2 hrs by fluorescence assay (reference value: 75.3 +/- 5.2 %); format: functional; set-up: scale not given: the % may be the effect or the level left
HUVEC [34] = experiment: Inhibition of simulated ischemia/reperfusion-induced human HUVEC cells death assessed as decrease in fragmented mitochondria at 30 ug/ml after 2 hrs by Hoechst 33342 dye based fluorescence assay; format: functional, cell-based

SMILES	Activity (Mus musculus [1])	Activity (Mus musculus [2])	Activity (Mus musculus [3])	Activity (Mus musculus [4])	Activity (Mus musculus [5])	Activity (Mus musculus [6])	inhibition (INH) (Mus musculus [7])	pEC50 [8]	pEC50 [9]	pEC50 [10]	also measured
CC1(C)N([O])C(c2ccc(OCC(=O)N[C@@H](CCCNC(=N)N)C(=O)N[C@@H](Cc3ccc(O)cc3)C(=O)O)cc2)=[N+]([O-])C1(C)C	10.1%	14.31%	26.97%	13.18%	11.91%	10.05%	28.29%	5.09	4.50	4.64	–
Cc1cc(C[C@H](NC(=O)COc2ccc(C3=[N+]([O-])C(C)(C)C(C)(C)N3[O])cc2)C(=O)N[C@@H](CCCNC(=N)N)C(=O)O)ccc1O	10.24%	18.97%	22.1%	31.21%	13.25%	12.38%	29.47%	5.09	4.50	4.64	–
CC1(C)N([O])C(c2ccc(OCC(=O)O)cc2)=[N+]([O-])C1(C)C	–	–	–	–	–	–	–	–	–	–	inhibition in vivo at 0.1 µmol/kg (Mus musculus [7]; Mus musculus, ICR, Ear, po): 29.7%; Activity (Mus musculus [11]): 9.1%; Activity (Mus musculus [12]): 12.31%; Activity (Mus musculus [13]): 20.97%; Activity (Mus musculus [14]): 23.18%; Activity (Mus musculus [15]): 21.11%; Activity (Mus musculus [16]): 13.05%
COc1cc(O)ccc1C[C@H](NC(=O)COc1ccc(C2=[N+]([O-])C(C)(C)C(C)(C)N2[O])cc1)C(=O)N[C@@H](CCCNC(=N)N)C(=O)O	11.37%	16.33%	22.47%	27.14%	24.12%	11.24%	29.27%	5.09	4.50	4.64	–
CCc1cc(O)ccc1C[C@H](NC(=O)COc1ccc(C2=[N+]([O-])C(C)(C)C(C)(C)N2[O])cc1)C(=O)N[C@@H](CCCNC(=N)N)C(=O)O	10.78%	17.31%	21.89%	22.78%	22.34%	15.04%	30.26%	5.09	4.50	4.64	–
CC1(C)N([O])C(c2ccc(OCC(=O)N[C@@H](Cc3ccc(O)cc3)C(=O)N[C@@H](CCC(=O)O)C(=O)O)cc2)=[N+]([O-])C1(C)C	11.1%	13.44%	26.41%	13.58%	15.11%	14.22%	32.22%	5.09	4.50	4.64	–
CC1(C)N([O])C(c2ccc(OCC(=O)NCCNC(=O)[C@H](Cc3ccc(O)cc3)NC(=O)[C@@H](N)CCCNC(=N)N)cc2)=[N+]([O-])C1(C)C	15.28%	25.75%	35.74%	48.17%	37.11%	23.15%	50.68%	4.71	4.49	4.47	Activity (HUVEC [17]): 41.5%; Activity (Mus musculus [18]): 17.89%; Activity (Mus musculus [19]): 28.65%; Activity (Mus musculus [20]): 32.33%; Activity (Mus musculus [21]): 50.61%; Activity (Mus musculus [22]): 39.13%; Activity (Mus musculus [23]): 27.67%; Activity (Mus musculus [24]): 7.48%; Activity (Mus musculus [25]): 10.35%; Activity (Mus musculus [26]): 13.57%; Activity (Mus musculus [27]): 15.78%; Activity (Mus musculus [28]): 11.91%; Activity (Mus musculus [29]): 9.14%; inhibition (INH) (Mus musculus [30]): 58.15%; inhibition (INH) (Mus musculus [31]): 21.21%; Activity (HUVEC [32]): Active; Activity (HUVEC [33]): 47.8%; inhibition (HUVEC [34]): Active
